Assay results as given in ChEMBL document CHEMBL1146264, “Estrogen receptor beta ligands: design and synthesis of new 2-phenyl-isoindole-1,3-diones” (Bioorg Med Chem Lett, 2007).

Experiments:
Estrogen receptor = molecular target: T1, Estrogen receptor (Homo sapiens, UniProt P03372)
T1 sequence (P03372 whole entry): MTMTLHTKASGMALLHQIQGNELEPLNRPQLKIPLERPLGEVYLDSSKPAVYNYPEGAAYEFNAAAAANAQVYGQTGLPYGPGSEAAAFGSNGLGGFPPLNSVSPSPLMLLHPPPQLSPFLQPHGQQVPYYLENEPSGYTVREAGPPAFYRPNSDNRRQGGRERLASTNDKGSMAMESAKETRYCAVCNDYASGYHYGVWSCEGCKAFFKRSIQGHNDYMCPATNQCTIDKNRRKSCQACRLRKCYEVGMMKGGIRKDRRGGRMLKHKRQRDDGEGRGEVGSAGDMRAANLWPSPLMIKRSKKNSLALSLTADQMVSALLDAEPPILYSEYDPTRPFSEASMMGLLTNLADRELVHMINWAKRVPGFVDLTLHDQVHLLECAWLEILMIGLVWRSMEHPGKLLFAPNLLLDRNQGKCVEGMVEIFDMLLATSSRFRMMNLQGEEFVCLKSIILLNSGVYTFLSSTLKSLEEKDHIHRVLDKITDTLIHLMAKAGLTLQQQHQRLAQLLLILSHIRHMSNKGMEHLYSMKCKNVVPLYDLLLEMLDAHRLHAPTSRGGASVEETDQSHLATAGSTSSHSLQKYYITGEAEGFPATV
Description: Inhibition of human LBD of ERalpha

Estrogen receptor beta = Estrogen receptor beta (Homo sapiens, UniProt Q92731)
Estrogen receptor beta, sequence (Q92731 whole entry, the tested form may be a part): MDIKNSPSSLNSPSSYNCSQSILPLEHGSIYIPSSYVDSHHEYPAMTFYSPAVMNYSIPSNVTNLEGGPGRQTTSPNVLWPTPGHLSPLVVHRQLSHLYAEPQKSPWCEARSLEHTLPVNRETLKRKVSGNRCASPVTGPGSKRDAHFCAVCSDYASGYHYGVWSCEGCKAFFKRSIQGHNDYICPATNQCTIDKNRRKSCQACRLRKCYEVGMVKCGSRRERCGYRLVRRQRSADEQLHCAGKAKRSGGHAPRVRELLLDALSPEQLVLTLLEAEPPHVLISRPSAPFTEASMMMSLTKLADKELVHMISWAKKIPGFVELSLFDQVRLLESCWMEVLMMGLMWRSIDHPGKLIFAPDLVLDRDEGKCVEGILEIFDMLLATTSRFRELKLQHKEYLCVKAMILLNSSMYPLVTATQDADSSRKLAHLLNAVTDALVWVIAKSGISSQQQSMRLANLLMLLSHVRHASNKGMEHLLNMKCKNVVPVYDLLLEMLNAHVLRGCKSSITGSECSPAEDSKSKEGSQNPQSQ
Description: Inhibition of human LBD of ERbeta

Homo sapiens = species: Homo sapiens; assay: Selectivity for human LBD of ERbeta over human LBD of ERalpha

Compound	IC50 (Estrogen receptor)	IC50 (Estrogen receptor beta)	Ratio IC50 (Homo sapiens)
O=C1c2ccc(O)cc2C(=O)N1[C@H]1CC[C@H](O)CC1	> 5000 nM	> 5000 nM	
O=C1c2ccc(O)cc2C(=O)N1c1ccc(O)cc1[N+](=O)[O-]	21 nM	92 nM	4
O=C1c2ccc(O)cc2C(=O)N1c1cccc(O)c1	2900 nM	> 5000 nM	
O=C1c2cc(O)cc(Br)c2C(=O)N1c1ccc(O)cc1	36 nM	1620 nM	45
Cc1cc(O)ccc1N1C(=O)c2ccc(O)cc2C1=O	802 nM	2810 nM	4
O=C1c2ccccc2C(=O)N1c1ccc(O)cc1	> 10000 nM	> 10000 nM	
COc1cc(Br)c2c(c1)C(=O)N(c1ccc(O)cc1)C2=O	> 5000 nM	> 5000 nM	
O=C1c2ccc(O)cc2C(=O)N1c1cccc2c(O)cccc12	802 nM	2810 nM	4
O=C1c2ccc(O)cc2C(=O)N1c1ccc(O)cc1	84 nM	1980 nM	24
COc1ccc(N2C(=O)c3ccc(O)cc3C2=O)cc1	3300 nM	> 5000 nM	
O=C1c2ccc(O)cc2C(=O)N1c1ccc(O)cc1F	53 nM	339 nM	6

Next, values leading:

IC50 (Estrogen receptor)	IC50 (Estrogen receptor beta)	Ratio IC50 (Homo sapiens)	Compound
> 5000 nM	> 5000 nM		O=C1c2ccc(O)cc2C(=O)N1c1cc(O)cc(O)c1
> 5000 nM	> 5000 nM		COc1ccc(N2C(=O)c3ccc(O)cc3C2=O)c([N+](=O)[O-])c1
2640 nM	560 nM	0.2	O=C1c2ccc(O)cc2C(=O)N1c1ccc(O)c2ccccc12
2470 nM	> 5000 nM		COc1ccc(N2C(=O)c3ccc(O)cc3C2=O)c(OC)c1
2700 nM	> 5000 nM		O=C1c2ccc(O)cc2C(=O)N1c1ccccc1
